pKd: −log10 of the molar value.
Biological target: T1, SOCS4/ElonginBC (Homo sapiens, UniProt Q15369+Q15370+Q8WXH5)
T1 construct: Human SOCS4 (amino acids 274–437); made in house; host or cells: E. coli BL21(DE3)
Assay: ITC binding of phosphotyrosine peptides to SOCS4/ElonginBC
Settings: 50 mM HEPES pH 7.5, 150 mM NaCl, 1 mM DTT, 20°C; for KB × 10^5: association constant, ± curve fitting error

[1] = 0.3–0.4 mM peptide injected into 15 μM protein, single binding site model

T1 sequence (Q8WXH5 274-437): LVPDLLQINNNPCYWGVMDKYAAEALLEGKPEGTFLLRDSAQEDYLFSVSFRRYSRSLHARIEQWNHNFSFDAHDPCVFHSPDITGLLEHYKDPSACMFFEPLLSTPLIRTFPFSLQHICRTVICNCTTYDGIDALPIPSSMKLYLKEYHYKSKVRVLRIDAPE
T1 sequence (Q15369 17-112 partner limits assumed): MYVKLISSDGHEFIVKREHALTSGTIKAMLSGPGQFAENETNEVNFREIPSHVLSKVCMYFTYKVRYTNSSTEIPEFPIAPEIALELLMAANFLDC
T1 sequence (Q15370 whole entry partner, the tested form may be a part): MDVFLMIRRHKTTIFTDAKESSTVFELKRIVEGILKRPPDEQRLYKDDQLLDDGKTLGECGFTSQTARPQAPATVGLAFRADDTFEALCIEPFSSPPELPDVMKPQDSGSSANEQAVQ
Text: Blank titrations were subtracted from binding data, and data were processed by using ORIGIN software provided with the instrument.

KB × 10^5	KD [1]	pKd [1]	SMILES
3.43 ± 0.24 10^5 M^−1	–	–	CC[C@H](C)[C@H](NC(=O)[C@H](Cc1ccc(O)cc1)NC(=O)[C@@H](NC(=O)[C@H](Cc1ccc(OP(=O)(O)O)cc1)NC(=O)[C@H](CC(N)=O)NC(=O)[C@H](CC(N)=O)NC(=O)CNC(=O)[C@@H](N)CC(N)=O)C(C)C)C(=O)N[C@@H](CC(=O)O)C(=O)N1CCC[C@H]1C(=O)N[C@H](C(=O)O)[C@@H](C)O [KIT pY568]
1.30 ± 0.16 10^5 M^−1	–	–	CC[C@H](C)[C@H](NC(=O)[C@@H](NC(=O)[C@H](Cc1ccc(OP(=O)(O)O)cc1)NC(=O)[C@H](CCC(=O)O)NC(=O)[C@H](Cc1ccccc1)NC(=O)[C@H](CO)NC(=O)[C@H](C)N)[C@@H](C)O)C(=O)N[C@@H](CC(C)C)C(=O)N[C@@H](CC(=O)O)C(=O)N1CCC[C@H]1C(=O)N[C@@H](CO)C(=O)O [EpoR pY402]
3.43 ± 0.25 10^5 M^−1	low micromolar	> 5.52	CC(C)[C@H](NC(=O)[C@H](CCCCN)NC(=O)[C@H](Cc1ccc(O)cc1)NC(=O)[C@H](Cc1ccc(OP(=O)(O)O)cc1)NC(=O)[C@H](CCC(=O)O)NC(=O)[C@H](CCCCN)NC(=O)[C@H](CC(=O)O)NC(=O)[C@@H](N)CCC(N)=O)C(=O)N[C@@H](CCCCN)C(=O)N[C@@H](CCC(=O)O)C(=O)N1CCC[C@H]1C(=O)NCC(=O)O [JAK2 pY1007]

— paper PMC2225448 (Structure(London, England:1993), 2007)
